US20120328696A1, “ANTI-PARKINSONIAN COMPOUND ACETYLSALICYLIC ACID MALTOL ESTER” (Hutecs Korea Pharmaceutical Co., Ltd., priority 2008, published 2012)

How the values were obtained:
Assay type in all cases: in vivo
[1] = tested on: PKCδ; assay: Striatal PKCδ-like immunoreactivity after MA (immunocytochemistry); details: p.o.; AME 50, EBS 20, rottlerin 20 mg/kg; MA 8 mg/kg i.p. x4; GPx-1 (+/+) and (−/−) mice
Experimental: (§1) The mice received four times of MA (8 mg/kg, ip) or saline as a 2 hr-time interval. Chemicals (AME, EBS, and PKC inhibitors) were administrated for 5 consecutive days (twice daily), and were given 2 times at 4 hr and 30 min before the first MA injection as shown in the experimental schedule. Animals were sacrificed at 4 hrs and 3 days after the final MA administration.
Animals were sacrificed at 4 hours and 3 days after the last MA injection. They were anesthetized with 60% urethane and perfused transcardially with 50 ml of 50 mM phosphate buffered saline (PBS), followed by 50 ml of a mixture of 4% paraformaldehyde in PBS. The rate of perfusion was 50 ml/min. The brains were removed, post-fixed at 4° C. for 24 h in the same fixative and then cryoprotected in 30% sucrose in PBS.
The immunocytochemistry was performed as described previously (Kim et al., 2000a, b). Briefly, prior to incubation with the primary antibodies, sections were preincubated with 0.3% hydrogen peroxide in PBS for 30 min (to block endogenous peroxidase activity), then in PBS containing 0.4% Triton X-100 for 20 min and 1% normal serum for 20 min. The sections were then incubated for 48 h at 4° C. in primary antibody against tyrosine hydroxylase (1:500, Chemicon, Termecula, Calif., USA), GPx1 (1:500, AbFrontier, Seoul, Korea), PKC (1:200, Santa Cruz biotechnology INC, CA, USA) or F4/80 (1:50, Serotec, Raleigh, N.C., USA). The sections were further incubated with secondary biotinylated antisera (1:1000 dilution; Vector, Brulingame, Calif.) for 1 hr, and immersed in avidin-biotin-peroxidase complex (ABC Elite kit, Vector) for 1 hr. Sections were always washed three times with PBS (pH 7.4) between each incubation step. 3,3′-diaminobenzidine (DAB) was used as a chromogen.

[2] = tested on: MDA, 4-HNE; assay: Striatal lipid peroxidation (MDA, 4-HNE) after MA; details: MDA and 4-HNE; striatum, 3 days after final MA; p.o.; AME 50, EBS 20, rottlerin 20 mg/kg; GPx-1 (+/+) and (−/−) mice
Experimental: as §1
The amount of lipid peroxidation was assessed by measuring the accumulation of thiobarbituric acid-reactive substance in homogenates of striatal tissue and is expressed as malondialdehyde (MDA) content (Kim et al., 1999, 2000b, 2002). In brief, 0.1 ml of the homogenate (or standard solutions prepared daily from 1,1,3,3-tetra-methoxypropane) and 0.75 ml of the working solution (thiobarbituric acid 0.37% and perchloric acid 6.4%, 2:1 v/v) were mixed and heated in a water bath to 95° C. for 1 h. After cooling (10 min in ice water bath), the flocculent precipitate was removed by centrifugation at 3200×g for 10 min. The supernatant was neutralized and filtered prior to injection on an ODS 5 μm column. Mobile phase consisted of 50 mM PBS (pH 6.0): methanol (58:42, v/v). Isocratic separation was performed with 1.0 ml/min flow rate and detection at 532 nm using a UV/VIS HPLC-Detector (Model 486, Waters Associates, Milford, Mass., USA). MDA values were expressed as nmole/mg protein.
4-hydroxy-2-nonenal (4HNE) is major product of the lipid peroxidation process (Benedetti et al., 1980). Determining of 4HNE was performed as slot blot analysis (Zhang et al., 2000). Briefly, following transfer, the PVDF membranes were preincubated with 5% non-fat milk and incubated overnight at 4° C. with anti-4HNE (1:2000, Calbiochem, San Diego, Calif., USA). After incubation with primary antibody, membranes were incubated with a HRP-conjugated secondary antibody. Subsequent visualization was performed using enhanced chemiluminescence system (ECL Plus®, GE healthcare).

[3] = tested on: PKCδ; assay: Striatal PKCδ expression after MA (western blot); details: MA 8 mg/kg i.p. x4, GPx-1 (+/+) and (−/−) mice; for effect on MA-induced striatal PKCδ expression: p.o., AME 25 or 50, EBS 10 or 20, rottlerin 10 or 20 mg/kg
Experimental: as §1
Tissues were homogenized in lysis buffer, containing 200 mM Tris HCl (pH 6.8), 1% SDS, 5 mM EGTA (ethylene glycol tetraacetic acid), 5 mM EDTA (ethylenediaminetetraacetic acid), 10% glycerol, 1× phosphatase inhibitor cocktail I, 1× protease inhibitor cocktail. Lysate was centrifuged at 12,000×g for 30 min and supernatant fraction was used for Western blot analysis. […] And then, membranes were incubated with HRP-conjugated secondary anti-rabbit IgG (1:1000, GE healthcare, Piscataway, N.J., USA), anti-mouse IgG (1:1000, Sigma) or anti-goat IgG (1:1000, Sigma) for 2 h. Subsequent visualization was performed using enhanced chemiluminescence system (ECL Plus®, GE healthcare).

[4] = tested on: F4/80 (a marker of microgliosis); assay: F4/80 expression after MA (western blot); details: p.o.; AME 50, EBS 20, rottlerin 20 mg/kg; MA 8 mg/kg i.p. x4; GPx-1 (+/+) and (−/−) mice
Experimental: as §1
The western blot assays was performed as described previously (Kim et al., 2003). Tissues were homogenized in lysis buffer, containing 200 mM Tris HCl (pH 6.8), 1% SDS, 5 mM EGTA (ethylene glycol tetraacetic acid), 5 mM EDTA (ethylenediaminetetraacetic acid), 10% glycerol, 1× phosphatase inhibitor cocktail I, 1× protease inhibitor cocktail. Lysate was centrifuged at 12,000×g for 30 min and supernatant fraction was used for Western blot analysis. Proteins (20-50 ug/lane) were separated by 6%, 8%, 10% or 15% sodium dodecyl sulfate-polyacrylamide gel electrophoresis and transferred onto the PVDF membranes. Following transfer, the membranes were preincubated with 5% non-fat milk and incubated overnight at 4° C. with primary antibody against β-actin (1:50000, Sigma, St. Louis, Mo., USA), TH (1:5000, Chemicon), TH phosphor-Ser 19 (1:1000, Chemicon,), TH phosphor-Ser 31 (1:500, Chemicon), TH phosphor-Ser 40 (1:500, Chemicon), F4/80 (1:500, Serotec), GPx1 (1:2500, AbFrontier), PKC (1:5000, Santa Cruz biotechnology, Santa Cruz, Calif., USA), p53 (1:5000, Cell signaling, Beverly, Mass., USA), MDM2 (1:1000, BD Pharmingen, San Jose, Calif., USA), MDM2 phospho-Ser 166 (1:1000, cell signaling), BDNF (1:500, Chemicon), GDNF (1:250, Santa Cruz), COX-2 (1:2000, Cayman, Ann Arbor, MC, USA), IL-6 (1:2000, Abcam, Cambridge, Mass., USA), TNF-a (1:1000, R&D Systems, Mckinley place NE, NM, USA), IFN-γ (1:500, Chemicon) or Iba-1 (1:500, Wako, Osaka, Japan). And then, membranes were incubated with HRP-conjugated secondary anti-rabbit IgG (1:1000, GE healthcare, Piscataway, N.J., USA), anti-mouse IgG (1:1000, Sigma) or anti-goat IgG (1:1000, Sigma) for 2 h. […]

O=c1c2ccccc2[se]n1-c1ccccc1 [EBS, 2-phenyl-1,2-benzisoselenazol-3(2H)-one]
effect on MA-induced increase in striatal PKCδ-IR [1]: significantly attenuated MA-induced increase in striatal PKCδ-IR | effect on MA-induced increase in lipid peroxidation [2]: significantly attenuated | effect on MA-induced striatal PKCδ expression [3]: significantly reduced MA-induced the PKCδ- and cleaved PKCδ-expressions in a dose-related manner | effect on MA-induced increase in F4/80 expression [4]: significantly and consistently attenuating effects

CC(=O)Oc1ccccc1C(=O)Oc1c(C)occc1=O [AME, 3-(2-methyl-4-pyronyl)-2-acetyloxybenzoate]
effect on MA-induced increase in striatal PKCδ-IR [1]: significantly attenuated MA-induced increase in striatal PKCδ-IR | effect on MA-induced increase in lipid peroxidation [2]: significantly attenuated | effect on MA-induced striatal PKCδ expression [3]: significantly reduced MA-induced the PKCδ- and cleaved PKCδ-expressions in a dose-related manner | effect on MA-induced increase in F4/80 expression [4]: significantly and consistently attenuating effects

CC(=O)c1c(O)c(C)c(O)c(Cc2c(O)c3c(c(C(=O)/C=C/c4ccccc4)c2O)OC(C)(C)C=C3)c1O [rottlerin]
effect on MA-induced increase in striatal PKCδ-IR [1]: significantly attenuated MA-induced increase in striatal PKCδ-IR | effect on MA-induced increase in lipid peroxidation [2]: significantly attenuated | effect on MA-induced increase in striatal PKCδ expression ([3]; intra-striatal): attenuated the MA-induced increases in PKCδ expressions in a dose-dependent manner | effect on MA-induced striatal PKCδ expression [3]: significantly reduced MA-induced the PKCδ- and cleaved PKCδ-expressions in a dose-related manner | effect on MA-induced increase in F4/80 expression [4]: significantly and consistently attenuating effects
